The source of these data is US20220387365A1, “TUCARESOL DERIVATIVES AND USES THEREOF” (BeyondSpring Pharmaceuticals, Inc., priority 2019, published 2022).

One assay relates to Hepa 1-6 tumor cells. The assay is described as follows: In vivo efficacy in subcutaneous Hepa 1-6 mouse liver cancer model. As to conditions: p.o. Set-up: species or system C57BL/6 mice. The procedure: The study evaluated preclinically in vivo therapeutic efficacy of tucaresol and Compound C02 as a single agent in the treatment of subcutaneous Hepa 1-6 liver cancer models in C57BL/6 mice.
Cell Culture: The Hepa 1-6 tumor cells were maintained in vitro as a monolayer culture in DMEM medium supplemented with 10% fetal bovine serum at 37° C. in an atmosphere of 5% CO2 in air. The cells in an exponential growth phase were harvested and counted for tumor inoculation.
Tumor Inoculation: Each C57BL/6 mouse was subcutaneously inoculated at the right flank with Hepa 1-6 tumor cells (5×10^6) in 0.1 ml of PBS for tumor development. The date of tumor cell inoculation was denoted as day 0.
Randomization: The randomization started when the mean tumor size reached approximately 100-150 mm^3 in each model. […]
After tumor cell inoculation, the animals were checked daily for morbidity and mortality. During routine monitoring, the animals were checked for any effects of tumor growth and treatments on behavior such as mobility, food and water consumption, body weight gain/loss (body weights will be measured twice per week after randomization), eye/hair matting and any other abnormalities. Mortality and observed clinical signs were recorded for individual animals in detail. […]
Tumor growth inhibition (TGI): TGI % is an indication of antitumor activity, and expressed as: TGI (%)=100×(1−T/C). […]

In the next assay the test system is MC38 tumor cells. The assay is described as follows: Tumor volume in subcutaneous syngeneic colorectal cancer model MC38 (Example 10). It counts as in vivo,  mice. The procedure: MC38 tumor cells were maintained in vitro with DMEM medium supplemented with 10% fetal bovine serum at 37° C. in an atmosphere of 5% CO2 in air. The cells in exponential growth phase were harvested and quantitated by cell counter before tumor inoculation. Each mouse was inoculated subcutaneously in the right lower flank with 1×10^6 MC38 tumor cells in 0.1 ml of PBS for tumor development.
The randomization was started when the mean tumor size reached approximately 145 mm^3. 108 mice were enrolled in the study. All animals were randomly allocated to 9 study groups. Randomization by tumor volume was performed based on “Matched distribution” method/ “Stratified” method (StudyDirector™ software, version 3.1.399.19)/randomized block design.
Tumor volumes were measured three times a week after randomization in two dimensions using a caliper, and the volume was expressed in mm^3 using the formula: V=(L×W×W)/2, where V is tumor volume, L is tumor length (the longest tumor dimension) and W is tumor width (the longest tumor dimension perpendicular to L). Dosing as well as tumor and body weight measurements were conducted in a Laminar Flow Cabinet. The body weights and tumor volumes were measured by using StudyDirector™ software (version 3.1.399.19).
The treatment was initiated following randomization.
Tumor growth inhibition (TGI): TGI% is an indication of antitumor activity, and expressed as: TGI (%)=100×(1−T/C). T and C are the mean tumor volume (or weight) of the treated and control groups, respectively, on a given day. Statistical analysis of the difference in mean tumor volume among the groups was conducted using the method time to survival event/euthanasia. Individual mice were euthanized when tumor volume exceeded 3000mm^3. The study was ultimately terminated at Day 36.
To compare tumor volumes of different groups at a pre-specified day, Bartlett's test was used to check the assumption of homogeneity of variance across all groups. When the p-value of Bartlett's test was >=0.05, one-way ANOVA was runto test overall equality of means across all groups. If the p-value of the one-way ANOVA was <0.05, was performed post hoc testing by running Tukey's HSD (honest significant difference) tests for all pairwise comparisons, and Dunnett's tests for comparing each treatment group with the vehicle group. When the p-value of Bartlett's test was <0.05, was run Kruskal-Wallis test to test overall equality of medians among all groups. If the p-value the Kruskal-Wallis test was <0.05, was performed post hoc testing by running Conover's non-parametric test for all pairwise comparisons or for comparing each treatment group with the vehicle group, both with single-step p-value adjustment.
In addition, pairwise comparisons were performed without multiple comparison correction and reported nominal/uncorrected p-values directly from Welch's t-test or Mann-Whitney U test. Specifically, Bartlett's test was used to check the assumption of homogeneity of variance for a pair of groups. When the p-value of Bartlett's test was >0.05, Welch's t-test was run, otherwise Mann-Whitney U test was run, to obtain nominal p-values. Survival curves were compared between groups by logrank (Mantel-Cox) test.
All statistical analyses had been done in R-a language and environment for statistical computing and graphics (version 3.3.1). All tests were two-sided unless otherwise specified, and p-values of <0.05 were regarded as statistically significant.
Kaplan-Meier plot showing percent survival of mice treated with G1 to G9. A mouse whose tumor volume exceeded 3000 mm^3 was sacrificed and scored in the Kaplan-Meier plot. Tables 13.1 and 13.2 below describes the tumor growth inhibition with data collected over 24 days. Tables 14.1 and 14.2 below describes mean body weight.

Regarding `O=Cc1c(OCc2ccc(C(=O)O)cc2)cccc1OC1O[C@H](CO)[C@@H](O)[C@H](O)[C@H]1O` (some centres unmarked) [Compound C02], the “efficacy of once a day for five days (QD×5) against every-other-day administration” value in the assay with Hepa 1-6 tumor cells is listed as “greater efficacy than every-other-day administration”. Further, the “antitumor efficacy of the combination (in words)” value with MC38 tumor cells (20 mg/kg C02 (Group 4) against anti-PD1 alone (Group 3), FIG. 5A) is on record as “significantly increased the antitumor efficacy of anti-PDA1 administered alone”. In addition, the “Mean Tumor Volumes” value was 145 ± 5.46 mm^3 in the assay with MC38 tumor cells (Day 1); 215.49 ± 15.14 mm^3 with MC38 tumor cells (Day 4); 590.08 ± 59.54 mm^3 in the assay on MC38 tumor cells (Day 8); 1048.2 ± 89.19 mm^3 in the assay on MC38 tumor cells (Day 10); 1750.55 ± 154.11 mm^3 in the assay on MC38 tumor cells (Day 12); 2847.19 ± 242.97 mm^3 with MC38 tumor cells (Day 15).
